This passage reports IC50 results from patent US11548888B2, “KRas G12C inhibitors” (Mirati Therapeutics, Inc., priority 2019, dated 2023).

The structures appear in SMILES notation.

This experiment deals with T1, KRas G12C (Homo sapiens, UniProt P01116, G12C).
T1 construct: NCI-H358 cells (ATCC CRL-5807) express KRas G12C
T1 sequence (P01116 1-188 isoform P01116-2 G12C): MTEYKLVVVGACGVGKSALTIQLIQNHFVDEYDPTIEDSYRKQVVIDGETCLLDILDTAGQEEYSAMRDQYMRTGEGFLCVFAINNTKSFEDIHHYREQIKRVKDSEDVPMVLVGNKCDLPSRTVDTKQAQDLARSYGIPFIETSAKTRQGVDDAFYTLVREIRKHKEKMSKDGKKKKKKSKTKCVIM
The experiment in a line: Inhibition of KRas G12C-dependent cell growth: Phospho-ERK in NCI-H358 cells. It is filed as cell-based. Particulars: NCI-H358 cells expressing KRas G12C; Phospho-ERK (Thr202/Tyr204) normalized to GAPDH; 3 hours compound; 4 parameter fit. How it is done: The cellular inhibition of KRAs G12C by exemplary compounds of the present invention was determined by measuring the amount of a downstream marker of KRas activity, phosphorylated ERK (“Phospho-ERK”).
NCI-H358 cells (ATCC CRL-5807) express KRas G12C and were grown in RPMI medium supplemented with 10% fetal bovine serum, penicillin/streptomycin and 10 mM HEPES. Cells were plated in poly-D-Lysine coated 96-well plates at a concentration of 50,000 cells/well and allowed to attach for 8-12 hours. Diluted compounds were then added at a final concentration of 0.5% DMSO. After 3 hours, the medium was removed, 150 μL of 4% formaldehyde was added and the plates were incubated for 20 minutes. The plates were washed with PBS, and permeabilized using 150 μL of ice cold 100% methanol for 10 minutes. Non-specific antibody binding to the plates was blocked using 100 μL Licor Blocking Buffer (Li-Cor Biotechnology, Lincoln Nebr.) for 1 hour at room temperature. Positive control samples and samples lacking cells were parallel processed with test samples as standards.
The amount Phospho-ERK was determined using an antibody specific for the phosphorylated form of ERK and compared to the amount of GAPDH. Primary antibodies used for detection were added as follows: Phospho-ERK (Cell Signaling cs9101) diluted 1:500 and GAPDH (Millipore MAB374) diluted 1:5000 in Licor block+0.05% Tween 20. The plates were incubated for 2 hours at room temperature. The plates were washed with PBS+0.05% Tween 20.
Secondary antibodies used to visualize primary antibodies were added as follows: Anti-rabbit-680 diluted 1:1000 and Anti-mouse-800 diluted 1:1000 in Licor Block+0.05% Tween 20 and incubated for 1 hour at room temperature. The plates were washed with PBS+0.05% Tween 20. A 100 μL aliquot of PBS was added to each well and the plates were read on a LICOR AERIUS plate reader.
The pERK(Thr202/Tyr204) signal was normalized with the GAPDH signal and percent of DMSO control values were calculated. IC50 values were generated using a 4 parameter fit of the dose response curve.
For orientation: IC50 means the concentration at which inhibition is half-maximal. A high value points to lower potency. The molecule `C=C(F)C(=O)N1CCN(c2nc(OCC3CN(C)CC3(F)F)nc3c(F)c(-c4cccc5ccc(F)c(Cl)c45)ncc23)C[C@@H]1CC#N` (single isomer, unassigned) [Example 179] yielded an IC50 of 224 nM. On to `C=C(F)C(=O)N1CCN(c2nc(OCC3CN(C)CC3(F)F)nc3c(F)c(-c4cccc5ccc(F)c(Cl)c45)ncc23)C[C@@H]1CC#N` (single isomer, unassigned) [Example 180], for which the IC50 is 362 nM. As for `C=CC(=O)N1CCN(c2ncnc3cc(-c4cc(O)cc5ccccc45)ncc23)CC1` [Example 1, 1-(4-(7-(3-hydroxynaphthalen-1-yl)pyrido[4,3-d]pyrimidin-4-yl)piperazin-1-yl)prop-2-en-1-one], the figure is 1920 nM.

In turn, `C=CC(=O)N1CCN(c2ncnc3cc(-c4cc(O)cc5ccccc45)ncc23)CC1C#N` (stereo not shown) [Example 2, 1-acryloyl-4-(7-(3-hydroxynaphthalen-1-yl)pyrido[4,3-d]pyrimidin-4-yl)piperazine-2-carbonitrile] came in with an IC50 of 325 nM. Next, `C=CC(=O)N1CCN(c2ncnc3cc(-c4c(O)cccc4F)ncc23)CC1` [Example 3, 1-(4-(7-(2-fluoro-6-hydroxyphenyl)pyrido[4,3-d]pyrimidin-4-yl)piperazin-1-yl)prop-2-en-1-one]: 16000 nM; `C=CC(=O)N1CCN(c2nc(OCCN3CCOCC3)nc3cc(-c4cc(O)cc5ccccc45)ncc23)CC1` [Example 4, 1-(4-(7-(3-hydroxynaphthalen-1-yl)-2-(2-morpholinoethoxy)pyrido[4,3-d]pyrimidin-4-yl)piperazin-1-yl)prop-2-en-1-one]: 3430 nM; `C=CC(=O)N1CCN(c2nc(OC[C@@H]3CCCN3C)nc3cc(-c4cccc5ccccc45)ncc23)C[C@@H]1CC#N` [Example 5, 2-[(2S)-4-[2-[[(2S)-1-methylpyrrolidin-2-yl]methoxy]-7-(1-naphthyl)pyrido[4,3-d]pyrimidin-4-yl]-1-prop-2-enoyl-piperazin-2-yl]acetonitrile]: 45 nM. As for `C=CC(=O)N1CCN(c2nc(OC[C@@H]3CCCN3C)nc3cc(-c4cc(O)cc5ccccc45)ncc23)CC1` [Example 6, 1-[4-[7-(3-hydroxy-1-naphthyl)-2-[[(2S)-1-methylpyrrolidin-2-yl]methoxy]pyrido[4,3-d]pyrimidin-4-yl]piperazin-1-yl]prop-2-en-1-one], the figure is 300 nM; as for `C=CC(=O)N1CCN(c2nc(OC[C@@H]3CCCN3C)nc3c(F)c(-c4cccc5ccccc45)ncc23)C[C@@H]1CC#N` [Example 7, 2-[(2S)-4-[8-fluoro-2-[[(2S)-1-methylpyrrolidin-2-yl]methoxy]-7-(1-naphthyl)pyrido[4,3-d]pyrimidin-4-yl]-1-prop-2-enoyl-piperazin-2-yl]acetonitrile], 7 nM. With `C=C(F)C(=O)N1CCN(c2nc(OC[C@@H]3CCCN3C)nc3c(F)c(-c4cccc5ccccc45)ncc23)C[C@@H]1CC#N` [Example 8, 2-[(2S)-4-[8-fluoro-2-[[(2S)-1-methylpyrrolidin-2-yl]methoxy]-7-(1-naphthyl)pyrido[4,3-d]pyrimidin-4-yl]-1-(2-fluoroprop-2-enoyl)piperazin-2-yl]acetonitrile], the midpoint of inhibition, the IC50, lay at 132 nM. Next, `C=CC(=O)N1C2CCC1CN(c1nc(OC[C@@H]3CCCN3C)nc3c(F)c(-c4cc(O)cc5ccccc45)ncc13)C2` [Example 9, 1-[3-[8-fluoro-7-(3-hydroxy-1-naphthyl)-2-[[(2S)-1-methylpyrrolidin-2-yl]methoxy]pyrido[4,3-d]pyrimidin-4-yl]-3,8-diazabicyclo[3.2.1]octan-8-yl]prop-2-en-1-one]: 142 nM; `C=CC(=O)N1CCN(c2nc(OC[C@@H]3CCCN3C)nc3c(F)c(-c4cccc5cccc(C)c45)ncc23)C[C@@H]1CC#N` [Example 10, 2-[(2S)-4-[8-fluoro-7-(8-methyl-1-naphthyl)-2-[[(2S)-1-methylpyrrolidin-2-yl]methoxy]pyrido[4,3-d]pyrimidin-4-yl]-1-prop-2-enoyl-piperazin-2-yl]acetonitrile]: 2 nM; `C=C(F)C(=O)N1CCN(c2nc(OC[C@@H]3CCCN3C)nc3c(F)c(-c4cccc5cccc(C)c45)ncc23)C[C@@H]1CC#N` [Example 11, 2-[(2S)-4-[8-fluoro-7-(8-methyl-1-naphthyl)-2-[[(2S)-1-methylpyrrolidin-2-yl]methoxy]pyrido[4,3-d]pyrimidin-4-yl]-1-(2-fluoroprop-2-enoyl)piperazin-2-yl]acetonitrile]: 84 nM. As for `Cc1cccc2cccc(-c3ncc4c(N5CCN(C(=O)/C=C/CF)[C@@H](CC#N)C5)nc(OC[C@@H]5CCCN5C)nc4c3F)c12` [Example 12, 2-[(2S)-1-[(E)-4-fluorobut-2-enoyl]-4-[8-fluoro-7-(8-methyl-1-naphthyl)-2-[[(2S)-1-methylpyrrolidin-2-yl]methoxy]pyrido[4,3-d]pyrimidin-4-yl]piperazin-2-yl]acetonitrile], the figure is 31 nM. As for `C=C(F)C(=O)N1CCN(c2nc(OC[C@@H]3CC(F)(F)CN3C)nc3c(F)c(-c4cccc5cccc(C)c45)ncc23)C[C@@H]1CC#N` [Example 13, 2-((S)-4-(2-(((S)-4,4-difluoro-1-methylpyrrolidin-2-yl)methoxy)-8-fluoro-7-(8-methylnaphthalen-1-yl)pyrido[4,3-d]pyrimidin-4-yl)-1-(2-fluoroacryloyl)piperazin-2-yl)acetonitrile], the figure is 127 nM. For the molecule `C=C(F)C(=O)N1CCN(c2nc(OC[C@@H]3C[C@@H](F)CN3C)nc3c(F)c(-c4cccc5cccc(C)c45)ncc23)C[C@@H]1CC#N` [Example 14, 2-[(2S)-4-[8-fluoro-2-[[(2S,4R)-4-fluoro-1-methyl-pyrrolidin-2-yl]methoxy]-7-(8-methyl-1-naphthyl)pyrido[4,3-d]pyrimidin-4-yl]-1-(2-fluoroprop-2-enoyl)piperazin-2-yl]acetonitrile], the IC50 amounted to 119 nM. `C=C(F)C(=O)N1CCN(c2nc(OC[C@@H]3C[C@@H](OC)CN3C)nc3c(F)c(-c4cccc5cccc(C)c45)ncc23)C[C@@H]1CC#N` [Example 15, 2-[(2S)-4-[8-fluoro-2-[[(2S,4R)-4-methoxy-1-methyl-pyrrolidin-2-yl]methoxy]-7-(8-methyl-1-naphthyl)pyrido[4,3-d]pyrimidin-4-yl]-1-(2-fluoroprop-2-enoyl)piperazin-2-yl]acetonitrile] came in with an IC50 of 50 nM.

Take `C=C(F)C(=O)N1CCN(c2nc(OC[C@H]3CCCN3C)nc3c(F)c(-c4cccc5cccc(C)c45)ncc23)C[C@@H]1CC#N` [Example 16, 2-((S)-4-(8-fluoro-7-(8-methylnaphthalen-1-yl)-2-(((R)-1-methylpyrrolidin-2-yl)methoxy)pyrido[4,3-d]pyrimidin-4-yl)-1-(2-fluoroacryloyl)piperazin-2-yl)acetonitrile]: the IC50 came out at 118 nM. The molecule `Cc1cccc2cccc(-c3ncc4c(N5CCN(C(=O)/C=C/CF)[C@@H](CC#N)C5)nc(OC[C@@H]5C[C@@H](F)CN5C)nc4c3F)c12` [Example 17, 2-[(2S)-1-[(E)-4-fluorobut-2-enoyl]-4-[8-fluoro-2-[[(2S,4R)-4-fluoro-1-methyl-pyrrolidin-2-yl]methoxy]-7-(8-methyl-1-naphthyl)pyrido[4,3-d]pyrimidin-4-yl]piperazin-2-yl]acetonitrile] returned an IC50 of 59 nM.
